{"source": "patent US20100036088A1", "about": "“Selective poly-N-substituted glycine antibiotics” (priority 2008, published 2010)", "key": {"B. subtilis BR151": {"test_system": "B. subtilis BR151", "type": "cell-based", "settings": "Table 1", "text": "An initial set of 15 ampetoid analogs was synthesized to determine whether peptoids are affected by structural and sequence modifications in a manner consistent with AMP activities. The designs for ampetoids in this library were derived from two antibacterial and selective amphipathic dodecamers, 1 and 2. Peptoid 1 [H-(Nlys-Nspe-Nspe)4—NH2] is composed of 2/3 Nspe, the peptoid analog of phenylalanine, and 1/3 Nlys, the peptoid analog of lysine (see FIG. 1 for the structures of representative peptoid monomers and corresponding N-substituents). Peptoid 2 [H-(Nlys-Nssb-Nspe)4—NH2] contains 1/3 isoleucine-like Nssb monomers in place of Nspe. The variant sequences were designed to effect changes in chirality, length, hydrophobicity, charge, and amphipathicity. All of these compounds were tested for antibacterial activity against representative BSL1 Gram-negative (E. coli JM109) and Gram-positive (B. subtilis BR151) bacterial strains. As an initial measure of selectivity, the lytic activity of the peptoids was determined against human erythrocytes. Table 1 summarizes the sequences synthesized, the solvent composition at RP-HPLC elution as a relative measure of molecular hydrophobicity, and antibacterial and hemolytic activities.\nAntibacterial assays. MICs were determined according to CLSI M7-A6 protocols in a 96-well microtiter plate. In test wells, 50 μL bacterial inoculum (5×10^5 CFU/ml) in Mueller-Hinton broth (MHB) was added to 50 μL peptoid solution in MHB (prepared by 1:2 serial dilutions). Positive controls contained 50 μL inoculum and 50 μL MHB without peptoid. […] MIC values reported were reproducible between three independent experimental replicates, each consisting of two parallel trials. Broad-spectrum antimicrobial susceptibility testing was performed against BSL2 pathogens by Nova Biologicals, Inc. (Conroe, Tex.)."}, "[1]": {"test_system": "NIH 3T3 mouse fibroblast cells", "assay": "MTS assay, metabolic inhibition", "type": "cell-based", "settings": "Table 3; NIH 3T3 cells", "summary_of_the_method": "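NIH/3T3 cells seeded at 5,000 per well, grown a day, then exposed to serially diluted peptoids in HBSS together with MTS reagent. Absorbance at 490 nm read after 3 hours at 37° C.; mean of six replicates.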"}}, "note": "Square brackets hold non-standard residues; d marks the D form. Peptide text beside a SMILES is read from it. Nspe = C[C@H](NCC(=O)O)c1ccccc1; Nlys = NCCCCNCC(=O)O", "data": [{"compound": "C[C@@H](c1ccccc1)N(CC(N)=O)C(=O)CN(C(=O)CN(CCCCN)C(=O)CN(C(=O)CN(C(=O)CN(CCCCN)C(=O)CN(C(=O)CN(C(=O)CN(CCCCN)C(=O)CN(C(=O)CN(C(=O)CNCCCCN)[C@@H](C)c1ccccc1)[C@@H](C)c1ccccc1)[C@@H](C)c1ccccc1)[C@@H](C)c1ccccc1)[C@@H](C)c1ccccc1)[C@@H](C)c1ccccc1)[C@@H](C)c1ccccc1", "note": "[compound 1, H-(NLys-Nspe-Nspe)4-NH2] (H-[Nlys][Nspe][Nspe][Nlys][Nspe][Nspe][Nlys][Nspe][Nspe][Nlys][Nspe][Nspe]-NH2)", "values": [{"measurement": "B. subtilis MIC", "setting": "B. subtilis BR151", "result": 0.88, "unit": "µM"}, {"measurement": "ID10 (10% metabolic inhibitory concentration)", "setting": "[1]", "result": 5.1}, {"measurement": "ID50 (50% metabolic inhibitory concentration)", "setting": "[1]", "result": 1.4}]}]}
